Earlier results as cited in patent US12527845B2, “Formulations” (Arecor Limited, priority 2016, dated 2026).

Conditions: 25° C.

SMILES	log K with respect to zinc ion binding
NCCNCCN [DETA, diethylenetriamine]	8.88
O=C(O)CN(CCN(CC(=O)O)CC(=O)O)CC(=O)O [EDTA, ethylenediaminetetraacetate]	14.5
O=C(O)CN(CCOCCOCCN(CC(=O)O)CC(=O)O)CC(=O)O [EGTA, ethyleneglycoltetraacetate]	12.6
NCCNCCNCCN [TETA, triethylenetetramine]	11.95
NCCN [ethylenediamine]	5.69
N[C@@H](Cc1c[nH]cn1)C(=O)O [histidine]	6.51
O=P(O)(O)OP(=O)(O)O [pyrophosphate]	8.71

Further lines, results first:

log K with respect to zinc ion binding	SMILES
4.93	O=C(O)CC(O)(CC(=O)O)C(=O)O [citrate]
9.11	N[C@@H](CS)C(=O)O [cysteine]
6.67	N[C@@H](CSSC[C@H](N)C(=O)O)C(=O)O [cystine]
4.62	N[C@@H](CCC(=O)O)C(=O)O [glutamate]
7.98	N[C@@H](CCC(=O)N[C@@H](CS)C(=O)NCC(=O)O)C(=O)O [glutathione]
